From ChEMBL document CHEMBL1201862, “PubChem BioAssay data set” (2004)
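96-well plates; 48 h exposure; 5 concentrations. Endpoints by linear interpolation between flanking doses. Not reached: highest tested concentration assigned. GI50 = concentration required for 50% inhibition of growth.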 Calls of active or inactive are those of the source. No stated cut-off is given here; in the data, active = GI50 up to about 1.1 µM and inactive = higher.

How the values were obtained:
Experiment in all cases: NCI anticancer screen, dose series, 48 h
786-0 = tested on: 786-0
A549 = tested on: A549
ACHN = tested on: ACHN
BT-549 = tested on: BT-549
COLO 205 = tested on: COLO 205
HCC 2998 = tested on: HCC 2998
HOP-62 = tested on: HOP-62
K562 = tested on: K562
KM12 = tested on: KM12
MDA-MB-231 = tested on: MDA-MB-231
MOLT-4 = tested on: MOLT-4
Malme-3M = tested on: Malme-3M
NCI-H23 = tested on: NCI-H23
NCI-H460 = tested on: NCI-H460
OVCAR-3 = tested on: OVCAR-3
SNB-19 = tested on: SNB-19
SR = tested on: SR
OVCAR-4 = tested on: OVCAR-4
SK-OV-3 = tested on: SK-OV-3
RXF 393 = tested on: RXF 393

Measured: GI50

O=C1C(NCCc2cc(Cl)c(O)c(Cl)c2)=CC(=O)c2[nH]cnc21
inactive: 786-0 55.5 µM | A549 33.9 µM | ACHN 47 µM | BT-549 33.7 µM | COLO 205 21.2 µM | HCC 2998 38.8 µM | HOP-62 44 µM | K562 26 µM | KM12 35.5 µM | MDA-MB-231 31 µM | MOLT-4 24.3 µM | Malme-3M 4.57 µM | NCI-H23 17.9 µM | NCI-H460 26.5 µM | OVCAR-3 17.7 µM | SNB-19 33.7 µM | SR 32.6 µM

CCCC(=O)Nc1ccc2c(c1)CN1C(=O)c3ccccc3C1=N2
inactive: 786-0 > 100 µM | A549 > 100 µM | ACHN > 100 µM | BT-549 > 100 µM | COLO 205 > 100 µM | HCC 2998 > 100 µM | HOP-62 > 100 µM | KM12 > 100 µM | MDA-MB-231 > 100 µM | MOLT-4 > 100 µM | Malme-3M > 100 µM | NCI-H23 > 100 µM | NCI-H460 > 100 µM | OVCAR-3 > 100 µM | OVCAR-4 > 100 µM | SK-OV-3 > 100 µM | SNB-19 > 100 µM | SR > 100 µM

C/C(=C\c1ccccc1)C(=O)NCc1ccc(C(=O)NCCC(C)C)cc1
inactive: 786-0 38.3 µM | A549 > 100 µM | ACHN 55.6 µM | BT-549 33.8 µM | COLO 205 > 100 µM | HCC 2998 > 100 µM | HOP-62 18.2 µM | K562 > 100 µM | KM12 > 100 µM | MDA-MB-231 85.3 µM | MOLT-4 > 100 µM | Malme-3M > 100 µM | NCI-H23 88.3 µM | NCI-H460 > 100 µM | OVCAR-3 > 100 µM | OVCAR-4 > 100 µM | RXF 393 20.8 µM | SK-OV-3 25.2 µM | SNB-19 36.1 µM

COc1ccc(CC(N)c2ccc(OC)cc2)cc1 (centres undefined)
inactive: 786-0 > 100 µM | A549 > 100 µM | ACHN > 100 µM | BT-549 > 100 µM | COLO 205 18.2 µM | HCC 2998 18.3 µM | HOP-62 > 100 µM | K562 33.1 µM | KM12 50 µM | MDA-MB-231 84.9 µM | MOLT-4 57.8 µM | Malme-3M 37.4 µM | NCI-H23 > 100 µM | NCI-H460 39.9 µM | OVCAR-3 > 100 µM | OVCAR-4 > 100 µM | RXF 393 72.1 µM | SK-OV-3 71.4 µM | SNB-19 > 100 µM

CCN1CCc2sc3nc(S)n(C)c(=O)c3c2C1
inactive: 786-0 > 100 µM | A549 > 100 µM | ACHN > 100 µM | BT-549 > 100 µM | COLO 205 > 100 µM | HCC 2998 > 100 µM | HOP-62 > 100 µM | K562 > 100 µM | KM12 > 100 µM | MDA-MB-231 > 100 µM | MOLT-4 > 100 µM | Malme-3M > 100 µM | NCI-H23 > 100 µM | NCI-H460 > 100 µM | OVCAR-3 > 100 µM | OVCAR-4 > 100 µM | RXF 393 > 100 µM | SK-OV-3 > 100 µM | SNB-19 > 100 µM

N#CC(Cc1ccccc1)N(CCC1=CCCCC1)Cc1ccccc1 (centres undefined)
inactive: 786-0 > 100 µM | A549 54.7 µM | ACHN > 100 µM | BT-549 71.9 µM | COLO 205 23.4 µM | HCC 2998 28.4 µM | HOP-62 > 100 µM | K562 54.1 µM | KM12 43.1 µM | MDA-MB-231 > 100 µM | MOLT-4 22.3 µM | Malme-3M 40.8 µM | NCI-H23 56.8 µM | NCI-H460 62.2 µM | OVCAR-3 81.7 µM | OVCAR-4 83.9 µM | RXF 393 46.1 µM | SK-OV-3 > 100 µM | SNB-19 > 100 µM

CCCCCCCC(CC(=O)O)OC(=O)CC(CCCCCCC)OC1OC(C)C(O)C(O)C1OC1OC(C)C(O)C(O)C1O (centres undefined)
inactive: 786-0 > 100 µM | A549 > 100 µM | ACHN > 100 µM | BT-549 > 100 µM | COLO 205 > 100 µM | HCC 2998 > 100 µM | HOP-62 > 100 µM | K562 72.1 µM | KM12 > 100 µM | MDA-MB-231 > 100 µM | MOLT-4 > 100 µM | Malme-3M 43.2 µM | NCI-H23 > 100 µM | NCI-H460 > 100 µM | OVCAR-3 > 100 µM | SK-OV-3 > 100 µM | SNB-19 > 100 µM | SR > 100 µM

COc1cc(-c2c[nH]c3ccccc23)nc(-c2c[nH]c3ccccc23)n1
inactive: 786-0 1.86 µM | A549 3.27 µM | ACHN 2.61 µM | BT-549 15.9 µM | COLO 205 8.32 µM | HCC 2998 4.22 µM | HOP-62 8.89 µM | K562 3.96 µM | KM12 4.18 µM | MDA-MB-231 2.49 µM | MOLT-4 2.9 µM | NCI-H460 3.08 µM | OVCAR-3 6.71 µM | OVCAR-4 8.81 µM | SK-OV-3 10.9 µM | SNB-19 5.26 µM | SR 9.53 µM

NCCNC(=O)CN(CC(=O)O)C1CCCCC1N(CC(=O)O)CC(=O)O (centres undefined)
inactive: 786-0 > 100 µM | A549 > 100 µM | ACHN > 100 µM | BT-549 > 100 µM | COLO 205 > 100 µM | HCC 2998 > 100 µM | HOP-62 > 100 µM | K562 > 100 µM | KM12 > 100 µM | MDA-MB-231 > 100 µM | MOLT-4 > 100 µM | Malme-3M > 100 µM | NCI-H23 > 100 µM | NCI-H460 > 100 µM | OVCAR-3 > 100 µM | OVCAR-4 > 100 µM | SK-OV-3 > 100 µM | SNB-19 > 100 µM | SR > 100 µM

O=C(CCc1ccccc1)ON1C(=S)NC(c2ccccc2)(c2ccccc2)C1=S
inactive: 786-0 19.7 µM | A549 37.5 µM | ACHN 44.9 µM | BT-549 37.8 µM | COLO 205 40.2 µM | HCC 2998 29.4 µM | HOP-62 30.1 µM | K562 14.6 µM | KM12 27.4 µM | MDA-MB-231 51.3 µM | MOLT-4 32.3 µM | Malme-3M 20.8 µM | NCI-H23 30.3 µM | NCI-H460 31.6 µM | OVCAR-3 29 µM | OVCAR-4 33.7 µM | RXF 393 36 µM | SK-OV-3 35.6 µM | SNB-19 64.4 µM

COc1cc2oc(=O)ccc2cc1C(=O)CC(C)C
inactive: 786-0 > 100 µM | A549 > 100 µM | ACHN > 100 µM | BT-549 71.4 µM | COLO 205 > 100 µM | HCC 2998 > 100 µM | HOP-62 > 100 µM | K562 > 100 µM | KM12 > 100 µM | MDA-MB-231 > 100 µM | MOLT-4 57.8 µM | NCI-H23 > 100 µM | NCI-H460 62.5 µM | OVCAR-3 > 100 µM | OVCAR-4 71.1 µM | SK-OV-3 > 100 µM | SNB-19 56.1 µM | SR 62.4 µM

CCC(C)C1(O)OC2CC3(C)OC(=CC3=O)/C(C)=C\C3OC(=O)C1(C)C32 (centres undefined)
inactive: 786-0 16.6 µM | A549 24.8 µM | ACHN 9.14 µM | BT-549 3.57 µM | COLO 205 8.93 µM | HCC 2998 15.2 µM | HOP-62 22.8 µM | K562 7.6 µM | KM12 10.6 µM | MDA-MB-231 19.1 µM | MOLT-4 12.3 µM | NCI-H23 5.53 µM | NCI-H460 14.2 µM | OVCAR-3 10.4 µM | OVCAR-4 42.5 µM | SK-OV-3 37.6 µM | SNB-19 33.7 µM | SR 5 µM

CCC(C)(C)c1ccc(OCCCCNC(=O)c2ccc3ccccc3c2O)c(C(C)(C)CC)c1
inactive: 786-0 15.1 µM | A549 27.2 µM | ACHN 16 µM | BT-549 30.8 µM | COLO 205 14.2 µM | HCC 2998 38.3 µM | HOP-62 33 µM | K562 4.54 µM | KM12 44.8 µM | MDA-MB-231 30 µM | MOLT-4 16.1 µM | Malme-3M 11 µM | NCI-H23 23.7 µM | NCI-H460 23.1 µM | OVCAR-3 19.4 µM | OVCAR-4 > 100 µM | SK-OV-3 74 µM | SNB-19 55.2 µM | SR > 100 µM

CC1=CC(=O)/C(=C/NC(=O)NN)C(=O)O1
inactive: 786-0 > 100 µM | A549 > 100 µM | ACHN > 100 µM | BT-549 > 100 µM | COLO 205 > 100 µM | HCC 2998 > 100 µM | HOP-62 > 100 µM | KM12 > 100 µM | MDA-MB-231 > 100 µM | MOLT-4 > 100 µM | NCI-H23 > 100 µM | NCI-H460 > 100 µM | OVCAR-3 > 100 µM | OVCAR-4 > 100 µM | RXF 393 > 100 µM | SK-OV-3 > 100 µM | SNB-19 > 100 µM

Nc1nc(Cl)cc(Nc2ccc3c(c2)CCC3)n1
inactive: 786-0 52.2 µM | A549 > 100 µM | ACHN > 100 µM | BT-549 > 100 µM | COLO 205 44.9 µM | HCC 2998 65 µM | K562 32.7 µM | KM12 36.1 µM | MDA-MB-231 52 µM | MOLT-4 2.45 µM | Malme-3M > 100 µM | NCI-H23 > 100 µM | NCI-H460 55.8 µM | OVCAR-3 > 100 µM | OVCAR-4 > 100 µM | SK-OV-3 > 100 µM | SNB-19 > 100 µM | SR 17.4 µM
